Test results reported in patent publication US12060588B2, “Methods of editing DNA methylation” (Whitehead Institute for Biomedical Research, priority 2016, dated 2024).

Experiments:
[1] = system: Snrpn promoter (IG-DMR GFP/Pat reporter), skin dermal cells; test: In vivo activation of the IG-DMR GFP/Pat reporter in mouse skin (lentiviral delivery)
Source text: FIGS. 7A-7H depict targeted ex vivo and in vivo DNA methylation editing by dCas9-Tet1 to activate a silenced GFP reporter. FIG. 7A provides a schematic diagram illustrating the experimental procedure for the ex vivo activation of a silenced GFP reporter in mouse fibroblast cells. Mouse tail fibroblast cells were derived from a genetically modified mouse line carrying a paternal IG-DMR-Snrpn-GFP allele (IG-DMRGFP/Pat) in the Dlk1-Dio3 locus. The IG-DMR-Snrpn promoter on the paternal allele is hypermethylated so that the GFP reporter is constitutively silenced. The cultured fibroblast cells were infected with lentiviral vectors expressing dCas9-Tet1 and gRNAs to demethylate the Snrpn promoter and activate the GFP reporter. Cells are subject to imaging and FACS analysis. […] Stained in red for Cherry, green for GFP and DAPI for nuclei. Scale bar: 100 um. […] Brains were sliced and analyzed by immunohistochemical approaches. […] FIGS. 7G-7H provide quantification of the percentage of IG-DMR^GFP/Pat cells with GFP activation in Cherry (gRNAs) positive cells in the in vivo lentiviral delivery experiment in the brain (FIG. 7G) and in the skin epidemis (FIG. 7H). […]
FIGS. 14A-14F depict activation of IG-DMR^GFP/Pat reporter in mouse skin cells by dCas9-Tet1 mediated demethylation. […] Note red auto-fluorescence on the left edges of the epidermis. […]

[2] = system: Snrpn promoter (IG-DMR GFP/Pat reporter), neurons; test: In vivo activation of the IG-DMR GFP/Pat reporter in mouse brain (stereotaxic lentiviral delivery)
Source text: FIGS. 7A-7H depict targeted ex vivo and in vivo DNA methylation editing by dCas9-Tet1 to activate a silenced GFP reporter. FIG. 7A provides a schematic diagram illustrating the experimental procedure for the ex vivo activation of a silenced GFP reporter in mouse fibroblast cells. Mouse tail fibroblast cells were derived from a genetically modified mouse line carrying a paternal IG-DMR-Snrpn-GFP allele (IG-DMRGFP/Pat) in the Dlk1-Dio3 locus. The IG-DMR-Snrpn promoter on the paternal allele is hypermethylated so that the GFP reporter is constitutively silenced. […] Brains were sliced and analyzed by immunohistochemical approaches. […] FIGS. 7G-7H provide quantification of the percentage of IG-DMR^GFP/Pat cells with GFP activation in Cherry (gRNAs) positive cells in the in vivo lentiviral delivery experiment in the brain (FIG. 7G) and in the skin epidemis (FIG. 7H). […]
To investigate whether the DNA methylation status can be modified in vivo, we infected 3 epidermal sites on the ventral side of an IG-DMR^GFP/Pat transgenic mouse with the dCas9-Tet1 and Snrpn gRNAs (FIG. 14D). […] In addition we infected the brain of an IG-DMR^GFP/Pat transgenic mouse with lentiviral vectors using a stereotaxic setup and analyzed the effect on targeted DNA methylation in brain slices by confocal microscopy. […]

[3] = system: off-target binding sites at Vac14, Tenm4, Vrk1 and Gm42619 loci; test: Bisulfite sequencing of off-target binding sites; assay type: cell-based, mouse

## dC-dT: dCas9 fused to an inactive mutant form of Tet1 (H1672Y, D1674A), SEQ ID NO: 160
[1]; with Snrpn gRNAs, lentiviral injection into dermal sites, 3 days
  GFP reporter activation in infected (Cherry positive) skin dermal cells in vivo: did not activate GFP reporter expression
[2]; with Snrpn gRNAs, stereotaxic lentiviral injection, 3 days
  GFP reporter activation efficiency in Cherry positive cells (neurons) of the brain in vivo: did not activate GFP reporter expression

## dCas9-Tet1: catalytically inactive Cas9 (dCas9) fused through NLS to the Tet1 catalytic domain, SEQ ID NO: 159; lentivirally expressed with gRNAs
[3]
  change in methylation level at second and third strongest (off-target) binding sites: only marginal change in methylation level
[1]; with a scrambled gRNA
  GFP reporter activation in infected skin dermal cells in vivo: did not activate GFP reporter expression
[2]; with a scrambled gRNA
  GFP reporter activation in Cherry positive cells of the brain in vivo: did not activate GFP reporter expression
